Reference: patent publication US11591318B2, “Bipyrazole derivatives as JAK inhibitors” (Incyte Corporation, priority 2013, dated 2023)
Where a name gives a salt, the structure may show the parent alone.

test system: human JAK1 (a.a. 837-1142); assay: In vitro JAK kinase assay (HTRF), JAK1; type: biochemical; conditions: ratio of IC50 values at 1 mM ATP
Method: The catalytic activity of JAK1, JAK2 or JAK3 was assayed by measuring the phosphorylation of a biotinylated peptide. The phosphorylated peptide was detected by homogenous time resolved fluorescence (HTRF). […] Reactions were carried out at room temperature for 1 hour and then stopped with 20 μL 45 mM EDTA, 300 nM SA-APC, 6 nM Eu-Py20 in assay buffer (Perkin Elmer, Boston, Mass.). Binding to the Europium labeled antibody took place for 40 minutes and HTRF signal was measured on a Fusion plate reader (Perkin Elmer, Boston, Mass.).

JAK2/JAK1, >10:
Cc1[nH]ncc1-c1cnn(C2(CC#N)CN(c3cnc(C(=O)N[C@@H](C)C(F)(F)F)cn3)C2)c1 [Example 1, 5-[3-(Cyanomethyl)-3-(3′-methyl-1H,1′H-4,4′-bipyrazol-1-yl)azetidin-1-yl]-N-[(1S)-2,2,2-trifluoro-1-methylethyl]pyrazine-2-carboxamide trifluoroacetate]
C[C@H](NC(=O)c1cc(F)c(N2CC(CC#N)(n3cc(-c4cn[nH]c4)cn3)C2)cc1F)C(F)(F)F [Example 5, 4-[3-(1H,1′H-4,4′-Bipyrazol-1-yl)-3-(cyanomethyl)azetidin-1-yl]-2,5-difluoro-N-[(1S)-2,2,2-trifluoro-1-methylethyl]benzamide trifluoroacetate]
Cc1n[nH]cc1-c1cnn(C2(CC#N)CN(c3cnc(C(=O)NC(C)C)cn3)C2)c1 [Example 2, 5-[3-(Cyanomethyl)-3-(3′-methyl-1H,1′H-4,4′-bipyrazol-1-yl)azetidin-1-yl]-N-isopropylpyrazine-2-carboxamide trifluoroacetate]
Cc1n[nH]cc1-c1cn(C2(CC#N)CN(c3cnc(C(=O)NC(C)C)cn3)C2)nc1C [Example 6, 5-[3-(Cyanomethyl)-3-(3,3′-dimethyl-1H,1′H-4,4′-bipyrazol-1-yl)azetidin-1-yl]-N-isopropylpyrazine-2-carboxamide trifluoroacetate]
